Assays:
E. cloacae UFR70 = test: MIC of ceftazidime (CAZ) at fixed concentration of compound (synergy), broth microdilution; type: cell-based; conditions: strain UFR70 (E. cloacae)
Summary of the method: (§1)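 Exponential-phase inoculum, 5×10^5 cfu/mL final, in cation-supplemented MHB; 35° C in air for 16-20 h. MIC: lowest concentration giving no visible growth.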

E. cloacae P99 = test: as above; type: cell-based; conditions: strain P99 (E. cloacae)
Summary of the method: as §1

E. coli RGN238 [1] = test: as above; type: cell-based; conditions: strain RGN238 (E. coli)
Summary of the method: as §1

K. pneumoniae 200047 = test: as above; type: cell-based; conditions: strain 200047 (K. pneumoniae)
Summary of the method: as §1

E. coli UFR18 = test: as above; type: cell-based; conditions: strain UFR18 (E. coli)
Summary of the method: as §1

K. oxytoca UFR21 = test: as above; type: cell-based; conditions: strain UFR21 (K. oxytoca)
Summary of the method: as §1

E. cloacae UFR51 = test: as above; type: cell-based; conditions: strain UFR51 (E. cloacae)
Summary of the method: as §1

E. cloacae UFR85 = test: as above; type: cell-based; conditions: strain UFR85 (E. cloacae)
Summary of the method: as §1

K. pneumoniae UFR77 = test: as above; type: cell-based; conditions: strain UFR77 (K. pneumoniae)
Summary of the method: as §1

E. coli 190317 = test: as above; type: cell-based; conditions: strain 190317 (E. coli)
Summary of the method: as §1

E. cloacae 260508 = test: as above; type: cell-based; conditions: strain 260508 (E. cloacae)
Summary of the method: as §1

E. coli UFR41 = test: as above; type: cell-based; conditions: strain UFR41 (E. coli)
Summary of the method: as §1

E. coli UFR39 = test: as above; type: cell-based; conditions: strain UFR39 (E. coli)
Summary of the method: as §1

K. pneumoniae 160143 = test: as above; type: cell-based; conditions: strain 160143 (K. pneumoniae)
Summary of the method: as §1

E. coli UFR61O = test: as above; type: cell-based; conditions: strain UFR61O (E. coli)
Summary of the method: as §1

K. pneumoniae UFR24 = test: as above; type: cell-based; conditions: strain UFR24 (K. pneumoniae)
Summary of the method: as §1

E. coli UFR74 = test: as above; type: cell-based; conditions: strain UFR74 (E. coli)
Summary of the method: as §1

E. coli UFR32 = test: as above; type: cell-based; conditions: strain UFR32 (E. coli)
Summary of the method: as §1

K. pneumoniae 6299 = test: as above; type: cell-based; conditions: strain 6299 (K. pneumoniae)
Summary of the method: as §1

P. aeruginosa CIP107051 = test: as above; type: cell-based; conditions: strain CIP107051 (P. aeruginosa)
Summary of the method: as §1

K. pneumoniae BAA-1898 = test: as above; type: cell-based; conditions: strain BAA-1898 (K. pneumoniae)
Summary of the method: as §1

K. pneumoniae UFR68 = test: as above; type: cell-based; conditions: strain UFR68 (K. pneumoniae)
Summary of the method: as §1

E. coli 131119 = test: as above; type: cell-based; conditions: strain 131119 (E. coli)
Summary of the method: as §1

E. coli RGN238 [2] = test: microbe, parasite or virus in culture; type: cell-based; conditions: Escherichia coli, RGN238, read-out: MIC compounds of the invention alone
Method: Log phase bacterial suspensions were adjusted to a final density of 5×10^5 cfu/mL in cation-adjusted Mueller-Hinton broth (Becton-Dickinson) and added to each well (98 μL). Microplates were incubated for 16-20 h at 35° C. in ambient air. The MIC of the compounds was defined as the lowest concentration of said compounds that prevented bacterial growth as read by visual inspection.

CTX-M-15 = CTX-M-15 (Escherichia coli, UniProt Q9EXV5)
Sequence of CTX-M-15 (Q9EXV5 29-291, species assumed): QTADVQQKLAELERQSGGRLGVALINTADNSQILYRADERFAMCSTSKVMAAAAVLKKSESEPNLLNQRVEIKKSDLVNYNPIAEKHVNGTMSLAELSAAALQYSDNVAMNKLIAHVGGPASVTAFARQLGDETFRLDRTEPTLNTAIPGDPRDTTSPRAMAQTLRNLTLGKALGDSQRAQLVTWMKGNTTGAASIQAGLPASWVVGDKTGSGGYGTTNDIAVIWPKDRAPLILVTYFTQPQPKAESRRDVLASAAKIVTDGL

OXA-11 = OXA-11 (Pseudomonas aeruginosa, UniProt Q06778)
Sequence of OXA-11 (Q06778 21-266): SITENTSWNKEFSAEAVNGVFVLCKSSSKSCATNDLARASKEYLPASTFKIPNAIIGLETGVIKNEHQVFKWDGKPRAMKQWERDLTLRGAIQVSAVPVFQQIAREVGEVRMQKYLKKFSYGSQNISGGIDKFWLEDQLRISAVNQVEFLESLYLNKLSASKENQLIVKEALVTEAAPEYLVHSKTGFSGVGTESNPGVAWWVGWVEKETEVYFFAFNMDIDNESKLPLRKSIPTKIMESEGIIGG

SHV-1 = SHV-1 (Klebsiella pneumoniae, UniProt P0AD64)
Sequence of SHV-1 (P0AD64 22-286): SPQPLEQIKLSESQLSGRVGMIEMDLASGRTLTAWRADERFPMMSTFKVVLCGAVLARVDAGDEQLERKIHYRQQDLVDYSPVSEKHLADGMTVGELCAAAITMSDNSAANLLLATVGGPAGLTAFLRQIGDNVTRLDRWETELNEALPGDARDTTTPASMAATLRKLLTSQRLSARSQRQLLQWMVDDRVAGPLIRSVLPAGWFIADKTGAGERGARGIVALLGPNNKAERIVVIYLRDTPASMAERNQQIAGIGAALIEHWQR

OXA-48 = OXA-48 (Klebsiella pneumoniae, UniProt Q6XEC0)
Sequence of OXA-48 (Q6XEC0 23-265, looked up, species assumed): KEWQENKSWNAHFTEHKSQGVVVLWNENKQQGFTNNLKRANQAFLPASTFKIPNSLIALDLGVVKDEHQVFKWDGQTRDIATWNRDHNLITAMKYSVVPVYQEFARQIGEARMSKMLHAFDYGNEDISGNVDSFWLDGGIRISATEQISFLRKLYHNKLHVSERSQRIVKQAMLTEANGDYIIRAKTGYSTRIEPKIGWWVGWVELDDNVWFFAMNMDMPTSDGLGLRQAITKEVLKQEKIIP

AmpC (P99) = AmpC (P99) (Enterobacter cloacae, UniProt P05364); test: biochemical
Sequence of AmpC (P99) (P05364 21-381): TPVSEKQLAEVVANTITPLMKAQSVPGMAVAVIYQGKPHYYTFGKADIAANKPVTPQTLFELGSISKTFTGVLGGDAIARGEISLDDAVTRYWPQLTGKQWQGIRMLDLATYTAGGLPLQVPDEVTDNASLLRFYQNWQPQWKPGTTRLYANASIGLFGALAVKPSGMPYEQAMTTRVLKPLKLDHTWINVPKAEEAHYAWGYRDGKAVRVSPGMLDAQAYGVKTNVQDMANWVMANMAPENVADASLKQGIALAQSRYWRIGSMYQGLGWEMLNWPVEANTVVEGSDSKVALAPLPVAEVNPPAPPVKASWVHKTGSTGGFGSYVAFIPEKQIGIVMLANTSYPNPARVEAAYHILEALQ

CMY-37 = CMY-37 (Citrobacter freundii, UniProt P05193); conditions: read-out: IC50 β-lactamase CMY-37
Sequence of CMY-37 (P05193 21-381 limits assumed): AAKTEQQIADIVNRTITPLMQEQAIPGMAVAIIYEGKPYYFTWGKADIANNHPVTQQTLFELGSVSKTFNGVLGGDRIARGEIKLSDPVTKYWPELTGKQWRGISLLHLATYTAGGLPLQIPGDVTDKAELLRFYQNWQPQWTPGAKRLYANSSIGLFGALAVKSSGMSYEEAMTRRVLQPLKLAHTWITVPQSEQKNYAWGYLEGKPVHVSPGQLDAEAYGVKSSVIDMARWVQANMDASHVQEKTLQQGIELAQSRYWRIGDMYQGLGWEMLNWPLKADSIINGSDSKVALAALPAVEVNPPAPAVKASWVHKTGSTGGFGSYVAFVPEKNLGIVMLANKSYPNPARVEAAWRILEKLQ

[3] = MIC of ceftazidime with compound fixed at 4 μg/mL
[4] = footnote *: MIC of ceftazidime with compound fixed at 8 μg/mL

O=C1N2CC(n3ccsc3=O)=CC(C2)N1OS(=O)(=O)[O-].[Na+] (stereo not drawn) [Example 1, Sodium [7-oxo-3-(2-oxo-thiazol-3-yl)-1,6-diaza-bicyclo[3.2.1]oct-3-en-6-yl]sulfate]
92 nM: IC50 (OXA-11)
<0.25: MIC combination of CAZ and compounds of the invention at 4 μg/mL (E. cloacae P99; [3]) | MIC combination of CAZ and compounds of the invention at 4 μg/mL (E. coli RGN238 [1]; [3]) | MIC combination of CAZ and compounds of the invention at 4 μg/mL (E. coli UFR18; [3]) | MIC combination of CAZ and compounds of the invention at 4 μg/mL (E. cloacae UFR51; [3]) | MIC combination of CAZ and compounds of the invention at 4 μg/mL (E. cloacae UFR85; [3]) | MIC combination of CAZ and compounds of the invention at 4 μg/mL (E. coli 190317; [3]) | MIC combination of CAZ and compounds of the invention at 4 μg/mL (E. cloacae 260508; [3]) | MIC combination of CAZ and compounds of the invention at 4 μg/mL (E. coli UFR39; [3]) | MIC combination of CAZ and compounds of the invention at 4 μg/mL (E. coli UFR32; [3]) | MIC combination of CAZ and compounds of the invention at 4 μg/mL (K. pneumoniae UFR68; [3]) | MIC combination of CAZ and compounds of the invention at 4 μg/mL (E. coli 131119; [3])
0.55 nM: IC50 (CTX-M-15)
0.5: MIC combination of CAZ and compounds of the invention at 4 μg/mL (K. oxytoca UFR21; [3]) | MIC combination of CAZ and compounds of the invention at 4 μg/mL (E. coli UFR41; [3]) | MIC combination of CAZ and compounds of the invention at 4 μg/mL (K. pneumoniae UFR24; [3])
1.5 nM: IC50 (SHV-1)
≤0.25: MIC combination of CAZ and compounds of the invention at 4 μg/mL (E. cloacae UFR70; [3]) | MIC combination of CAZ and compounds of the invention at 4 μg/mL (K. pneumoniae 200047; [3]) | MIC combination of CAZ and compounds of the invention at 4 μg/mL (K. pneumoniae UFR77; [3]) | MIC combination of CAZ and compounds of the invention at 4 μg/mL (K. pneumoniae 160143; [3]) | MIC combination of CAZ and compounds of the invention at 4 μg/mL (E. coli UFR61O; [3]) | MIC combination of CAZ and compounds of the invention at 4 μg/mL (E. coli UFR74; [3]) | MIC combination of CAZ and compounds of the invention at 4 μg/mL (K. pneumoniae 6299; [3]) | MIC combination of CAZ and compounds of the invention at 4 μg/mL (K. pneumoniae BAA-1898; [3])
30 nM: IC50 (AmpC (P99))
8 µg/mL: MIC (E. coli RGN238 [2])
33 nM: IC50 (CMY-37)
8: MIC combination of CAZ and compounds of the invention at 4 μg/mL (P. aeruginosa CIP107051; [3])
1.9 nM: IC50 (OXA-48)

O=C1N2CC(n3cncn3)=CC(C2)N1OS(=O)(=O)[O-].[Na+] (stereo not drawn) [Example 5, sodium [7-oxo-3-(1,2,4-triazol-1-yl)-1,6-diazabicyclo[3.2.1]oct-3-en-6-yl]sulfate]
4.4 nM: IC50 (SHV-1)
16 nM: IC50 (AmpC (P99))
0.66 nM: IC50 (CTX-M-15)
2 µg/mL: MIC (E. coli RGN238 [2])
<0.25: MIC combination of CAZ and compound at 8 μg/mL (E. cloacae UFR70; [4]) | MIC combination of CAZ and compound at 8 μg/mL (E. cloacae P99; [4]) | MIC combination of CAZ and compound at 8 μg/mL (E. coli RGN238 [1]; [4]) | MIC combination of CAZ and compound at 8 μg/mL (K. pneumoniae 200047; [4]) | MIC combination of CAZ and compound at 8 μg/mL (E. coli UFR18; [4]) | MIC combination of CAZ and compound at 8 μg/mL (K. oxytoca UFR21; [4]) | MIC combination of CAZ and compound at 8 μg/mL (E. cloacae UFR51; [4]) | MIC combination of CAZ and compound at 8 μg/mL (E. cloacae UFR85; [4]) | MIC combination of CAZ and compound at 8 μg/mL (K. pneumoniae UFR77; [4]) | MIC combination of CAZ and compound at 8 μg/mL (E. coli 190317; [4]) | MIC combination of CAZ and compound at 8 μg/mL (E. cloacae 260508; [4]) | MIC combination of CAZ and compound at 8 μg/mL (E. coli UFR41; [4]) | MIC combination of CAZ and compound at 8 μg/mL (E. coli UFR39; [4]) | MIC combination of CAZ and compound at 8 μg/mL (K. pneumoniae 160143; [4]) | MIC combination of CAZ and compound at 8 μg/mL (E. coli UFR61O; [4]) | MIC combination of CAZ and compound at 8 μg/mL (K. pneumoniae UFR24; [4]) | MIC combination of CAZ and compound at 8 μg/mL (E. coli UFR74; [4]) | MIC combination of CAZ and compound at 8 μg/mL (E. coli UFR32; [4]) | MIC combination of CAZ and compound at 8 μg/mL (K. pneumoniae 6299; [4]) | MIC combination of CAZ and compound at 8 μg/mL (K. pneumoniae BAA-1898; [4]) | MIC combination of CAZ and compound at 8 μg/mL (K. pneumoniae UFR68; [4]) | MIC combination of CAZ and compound at 8 μg/mL (E. coli 131119; [4])
4: MIC combination of CAZ and compound at 8 μg/mL (P. aeruginosa CIP107051; [4])
14 nM: IC50 (OXA-11)
0.45 nM: IC50 (OXA-48)
36 nM: IC50 (CMY-37)

Reference: patent US10722520B2, “Heterocyclic compounds and their use in preventing or treating bacterial infections” (MUTABILIS, priority 2016, dated 2020)
